The target in data set [1] is T1, human PDE4B1 (Homo sapiens, UniProt Q07343).
T1 construct: host or cells: Sf9 cells
The experiment in a line: cAMP HTRF assay to determine the activity of hPDE4B1. It counts as biochemical. To be noted: inhibition of PDE4B at a test concentration of 1 μM. The method, boiled down: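 Human recombinant PDE4B1 from Sf9 cells (4.8 U) in Tris-HCl, MgCl2, DTT, Tween 20 buffer at pH 7.8 with 40 nM cAMP (final), 30 min at room temperature. Reaction stopped with 1 mM IBMX; remaining cAMP detected by HTRF (665/620 nm ratio). IC50 from eight-concentration curves.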
In general terms: TR-FRET usually uses a lanthanide donor and a delayed reading to cut background.

In data set [2] the target is T1, human PDE4B1. The experiment in a line: TR-FRET assay using the LANCE Ultra cAMP kit to determine the activity of hPDE4B1. It counts as biochemical. To be noted: for inhibition at 1 µM / inhibition at 10 µM: read-out: Inhibition in % (inhibition of PDE4B); for inhibition at 10 µM: test concentration 10 μM (marked in cell). The method in brief:
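Sf9-expressed recombinant human PDE4B1 (0.96 U) hydrolyses 500 nM cAMP for 30 minutes at room temperature in 50 mM Tris-HCl, 50 mM MgCl2, 5 mM DTT, pH 8.5. The reaction is stopped with IBMX, and residual cAMP is measured by TR-FRET (665/620 ratio). IC50 comes from ten concentrations.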

This note sets out measurements from patent publication US9315490B2, “2,5-substituted pyrimidines” (Grünenthal GmbH, priority 2014, dated 2016).

T1 sequence (Q07343 whole entry): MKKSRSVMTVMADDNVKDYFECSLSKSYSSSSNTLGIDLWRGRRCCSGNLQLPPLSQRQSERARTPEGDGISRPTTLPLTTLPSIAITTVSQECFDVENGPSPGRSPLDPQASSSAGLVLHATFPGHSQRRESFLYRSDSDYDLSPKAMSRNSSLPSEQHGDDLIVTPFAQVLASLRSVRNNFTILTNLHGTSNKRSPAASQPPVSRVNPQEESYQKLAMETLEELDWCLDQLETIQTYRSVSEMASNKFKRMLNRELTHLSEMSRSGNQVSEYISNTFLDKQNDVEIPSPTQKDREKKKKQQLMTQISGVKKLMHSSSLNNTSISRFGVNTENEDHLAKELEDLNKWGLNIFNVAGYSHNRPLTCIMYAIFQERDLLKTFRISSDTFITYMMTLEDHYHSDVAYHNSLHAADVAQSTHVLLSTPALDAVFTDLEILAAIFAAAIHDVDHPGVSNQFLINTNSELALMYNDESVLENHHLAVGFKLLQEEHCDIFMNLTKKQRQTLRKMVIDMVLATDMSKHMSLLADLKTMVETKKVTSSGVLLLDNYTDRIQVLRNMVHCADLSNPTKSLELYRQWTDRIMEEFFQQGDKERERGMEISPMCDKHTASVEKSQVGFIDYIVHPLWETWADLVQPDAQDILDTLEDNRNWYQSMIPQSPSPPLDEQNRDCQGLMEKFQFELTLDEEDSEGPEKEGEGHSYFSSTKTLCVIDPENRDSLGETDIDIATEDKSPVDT

`C[S+]([O-])c1cn(-c2ncc(-c3ccnc(O)c3)cn2)c2cc(C(=O)N3CCOCC3)ccc12` (stereo not shown) [Example 143, (1-(5-(2-Hydroxypyridin-4-yl)pyrimidin-2-yl)-3-(methylsulfinyl)-1H-indol-6-yl)(morpholino)methanone]: the melting point lay in the range of 262 to 265 °C. Further, the inhibition at 1 µM in data set [1] turned out to be 65%.

With `C[S+]([O-])c1cn(-c2ncc(-c3cccc(CO)c3)cn2)c2cc(C(=O)N3CCOCC3)ccc12` (stereo not shown) [Example 188, (1-(5-(3-(Hydroxymethyl)phenyl)pyrimidin-2-yl)-3-(methylsulfinyl)-1H-indol-6-yl)(morpholino)methanone], the melting point was in the range of 193 to 196 °C. The inhibition at 1 µM in data set [1] turned out to be 104%.

`C[S+]([O-])c1cn(-c2ncc(-c3ncc(C#N)s3)cn2)c2cc(C(=O)N3CCOCC3)ccc12` (stereo not shown) [Example 207, 2-(2-(3-(Methylsulfinyl)-6-(morpholine-4-carbonyl)-1H-indol-1-yl)pyrimidin-5-yl)thiazole-5-carbonitrile] gave a melting point of 280 to 283 °C.

Molecule `C[S+]([O-])c1cn(-c2ncc(-c3cc(C(N)=O)ccn3)cn2)c2cc(C(=O)N3CCOCC3)ccc12` (stereo not shown) [Example 202, 2-(2-(3-(Methylsulfinyl)-6-(morpholine-4-carbonyl)-1H-indol-1-yl)pyrimidin-5-yl)isonicotinamide] yielded a melting point of 303 to 306 °C. Further, the inhibition at 1 µM in data set [1] amounted to 94%.

`C[S+]([O-])c1cn(-c2ncc(-c3ccccc3)cn2)c2cc(C(=O)N3CCNCC3)ccc12` (stereo not shown) [Example 12, (3-(Methylsulfinyl)-1-(5-phenylpyrimidin-2-yl)-1H-indol-6-yl)(piperazin-1-yl)methanone]: the melting point lay within 193 to 197 °C. Besides, the inhibition at 1 µM in data set [1] worked out at 33%.

Consider `C[S+]([O-])c1cn(-c2ncc(-c3ccccc3C#N)cn2)c2cc(C(=O)N3CCNCC3)ccc12` (stereo not shown) [Example 16, 2-(2-(3-(Methylsulfinyl)-6-(piperazine-1-carbonyl)-1H-indol-1-yl)pyrimidin-5-yl)benzonitrile], for which the melting point fell in the range of 230 to 235 °C.

Molecule `CS(=O)(=O)c1cn(-c2ncc(-c3ccccc3C#N)cn2)c2cc(C(=O)N3CCNCC3)ccc12` [Example 25, 2-(2-(3-(Methylsulfonyl)-6-(piperazine-1-carbonyl)-1H-indol-1-yl)pyrimidin-5-yl)benzonitrile] showed a melting point of 193 to 197 °C.

As for `Cc1ccnc(-c2cnc(-n3cc([S+](C)[O-])c4ccc(C(=O)N5CCOCC5)cc43)nc2)c1` (single isomer, unassigned) [Example 351, (1-(5-(4-Methylpyridin-2-yl)pyrimidin-2-yl)-3-(methylsulfinyl)-1H-indol-6-yl)(morpholino)methanone], the inhibition at 1 µM in data set [2] (test concentration 1 μM) stood at 93%.

For `CCN(C)C(=O)c1ccc2c([S+](C)[O-])cn(-c3ncc(-c4cc(C)ccc4F)cn3)c2c1` (stereo not shown) [Example 266, N-Ethyl-1-(5-(2-fluoro-5-methylphenyl)pyrimidin-2-yl)-N-methyl-3-(methylsulfinyl)-1H-indole-6-carboxamide], in data set [2] (test concentration 1 μM), the inhibition at 1 µM amounted to 98%.

For the molecule `CC#Cc1ccnc(-c2cnc(-n3cc([S+](C)[O-])c4ccc(C(=O)N5CCOCC5)cc43)nc2)c1` (stereo not shown) [Example 257, (3-(Methylsulfinyl)-1-(5-(4-(prop-1-yn-1-yl)pyridin-2-yl)pyrimidin-2-yl)-1H-indol-6-yl)(morpholino)methanone], the inhibition at 1 µM in data set [2] (test concentration 1 μM) is 93%.

In the case of `Cc1ccc(F)c(-c2cnc(-n3cc([S+](C)[O-])c4ccc(C(=O)N(C)CC(N)=O)cc43)nc2)c1` (stereo not shown) [Example 281, N-(2-Amino-2-oxoethyl)-1-(5-(2-fluoro-5-methylphenyl)pyrimidin-2-yl)-N-methyl-3-(methylsulfinyl)-1H-indole-6-carboxamide], the inhibition at 1 µM in data set [2] (test concentration 1 μM) came out at 97%.

In the case of `C[S+]([O-])c1cn(-c2ncc(-c3cc(NCC4CC4)ccn3)cn2)c2cc(C(=O)N3CCOCC3)ccc12` (stereo not shown) [Example 296, (1-(5-(4-((Cyclopropylmethyl)amino)pyridin-2-yl)pyrimidin-2-yl)-3-(methylsulfinyl)-1H-indol-6-yl)(morpholino)methanone], the inhibition at 1 µM in data set [2] (test concentration 1 μM) is 97%.

For the molecule `Cc1ccnc(-c2cnc(-n3cc(C(C)O)c4ccc(C(=O)N5CCOCC5)cc43)nc2)c1` (stereo not shown) [Example 318, (3-(1-Hydroxyethyl)-1-(5-(4-methylpyridin-2-yl)pyrimidin-2-yl)-1H-indol-6-yl)(morpholino)methanone], the inhibition at 10 µM in data set [2] amounted to 96%.

With `CN(CC(N)=O)C(=O)c1ccc2c([S+](C)[O-])cn(-c3ncc(-c4cc(N(C)C)ccn4)cn3)c2c1` (stereo not shown) [Example 284, N-(2-Amino-2-oxoethyl)-1-(5-(4-(dimethylamino)pyridin-2-yl)pyrimidin-2-yl)-N-methyl-3-(methylsulfinyl)-1H-indole-6-carboxamide], the inhibition at 1 µM in data set [2] (test concentration 1 μM) was 104%.

As to `C[S+]([O-])c1cn(-c2ncc(-c3cc(OC(F)(F)F)ccc3F)cn2)c2cc(C(=O)N3CCOCC3)ccc12` (stereo not shown) [Example 263, (1-(5-(2-Fluoro-5-(trifluoromethoxy)phenyl)pyrimidin-2-yl)-3-(methylsulfinyl)-1H-indol-6-yl)(morpholino)methanone], the inhibition at 1 µM in data set [2] (test concentration 1 μM) is 97%.

Turning to `CCc1ccnc(-c2cnc(-n3cc([S+](C)[O-])c4ccc(C(=O)N(C)CC(N)=O)cc43)nc2)c1` (stereo not shown) [Example 285, N-(2-Amino-2-oxoethyl)-1-(5-(4-ethylpyridin-2-yl)pyrimidin-2-yl)-N-methyl-3-(methylsulfinyl)-1H-indole-6-carboxamide], the inhibition at 1 µM in data set [2] (test concentration 1 μM) was 91%.

`CCc1ccnc(-c2cnc(-n3cc([S+](C)[O-])c4ccc(C(=O)N(C)C)cc43)nc2)c1` (stereo not shown) [Example 278, 1-(5-(4-Ethylpyridin-2-yl)pyrimidin-2-yl)-N,N-dimethyl-3-(methylsulfinyl)-1H-indole-6-carboxamide]: the inhibition at 1 µM in data set [2] (test concentration 1 μM) stood at 92%.

Regarding `Cc1ccnc(-c2cnc(-n3cc([S+](C)[O-])c4ccc(C(=O)N(C)CCO)cc43)nc2)c1` (stereo not shown) [Example 317, N-(2-Hydroxyethyl)-N-methyl-1-(5-(4-methylpyridin-2-yl)pyrimidin-2-yl)-3-(methylsulfinyl)-1H-indole-6-carboxamide], the inhibition at 10 µM in data set [2] turned out to be 87%.

Turning to `CCc1ccc(F)c(-c2cnc(-n3cc(C(C)O)c4ccc(C(=O)N(C)CC(N)=O)cc43)nc2)c1` (stereo not shown) [Example 331, N-(2-Amino-2-oxoethyl)-1-(5-(5-ethyl-2-fluorophenyl)pyrimidin-2-yl)-3-(1-hydroxyethyl)-N-methyl-1H-indole-6-carboxamide], the inhibition at 10 µM in data set [2] stood at 109%.

For the molecule `Cc1ccc(F)c(-c2cnc(-n3cc([S+](C)[O-])c4ccc(C(=O)N5CCCC5)cc43)nc2)c1` (stereo not shown) [Example 265, (1-(5-(2-Fluoro-5-methylphenyl)pyrimidin-2-yl)-3-(methylsulfinyl)-1H-indol-6-yl)(pyrrolidin-1-yl)methanone], in data set [2] (test concentration 1 μM), the inhibition at 1 µM was found to be 98%.

In the case of `CCNc1ccnc(-c2cnc(-n3cc([S+](C)[O-])c4ccc(C(=O)N5CCOCC5)cc43)nc2)c1` (stereo not shown) [Example 298, (1-(5-(4-(Ethylamino)pyridin-2-yl)pyrimidin-2-yl)-3-(methylsulfinyl)-1H-indol-6-yl)(morpholino)methanone], in data set [2] (test concentration 1 μM), the inhibition at 1 µM was 119%.

Turning to `CS(=O)(=O)c1cn(-c2ncc(-c3ccc(F)cc3F)cn2)c2cc(C(=O)N3CCNCC3)ccc12` [Example 23, (1-(5-(2,4-Difluorophenyl)pyrimidin-2-yl)-3-(methylsulfonyl)-1H-indol-6-yl)(piperazin-1-yl)methanone], the melting point fell in the range of 229 to 233 °C.

Turning to `Cc1ccnc(-c2cnc(-n3cc(S(C)(=N)=O)c4ccc(C(=O)N5CCOCC5)cc43)nc2)c1` (stereo not shown) [Example 288, (1-(5-(4-Methylpyridin-2-yl)pyrimidin-2-yl)-3-(S-methylsulfonimidoyl)-1H-indol-6-yl)(morpholino)methanone], the inhibition at 1 µM in data set [2] (test concentration 1 μM) amounted to 92%.

Turning to `Cc1ccnc(-c2cnc(-n3cc([S+](C)[O-])c4ccc(C(=O)N5CCOCC5)cc43)nc2)c1` (single isomer, unassigned) [Example 352, (1-(5-(4-Methylpyridin-2-yl)pyrimidin-2-yl)-3-(methylsulfinyl)-1H-indol-6-yl)(morpholino)methanone], in data set [2] (test concentration 1 μM, 1 µM), the “Inhibition in % (inhibition of PDE4B)” value was found to be 95%.

Take `C[S+]([O-])c1cn(-c2ncc(-c3ccc4c(c3)OCO4)cn2)c2cc(C(=O)N3CCOCC3)ccc12` (stereo not shown) [Example 262, (1-(5-(Benzo[d][1,3]dioxol-5-yl)pyrimidin-2-yl)-3-(methylsulfinyl)-1H-indol-6-yl)(morpholino)methanone]: the inhibition at 1 µM in data set [2] (test concentration 1 μM) is 70%.

With `CCc1ccc(F)c(-c2cnc(-n3cc([S+](C)[O-])c4ccc(C(=O)N(C)CC(N)=O)cc43)nc2)c1` (stereo not shown) [Example 280, N-(2-Amino-2-oxoethyl)-1-(5-(5-ethyl-2-fluorophenyl)pyrimidin-2-yl)-N-methyl-3-(methylsulfinyl)-1H-indole-6-carboxamide], the inhibition at 1 µM in data set [2] (test concentration 1 μM) was found to be 93%.

With `CN(CC(N)=O)C(=O)c1ccc2c([S+](C)[O-])cn(-c3ncc(-c4cc(C(C)(C)O)ccc4F)cn3)c2c1` (single isomer, unassigned) [Example 334, N-(2-Amino-2-oxoethyl)-1-(5-(2-fluoro-5-(2-hydroxypropan-2-yl)phenyl)pyrimidin-2-yl)-N-methyl-3-(methylsulfinyl)-1H-indole-6-carboxamide], the inhibition at 10 µM in data set [2] is 99%.

For orientation: inhibition means the drop in the measured response relative to a control, in per cent. Usually melting point stands for the temperature of the solid-liquid transition.
